# Measured values published in patent US20210228523A1, “MODULATORS OF SESTRIN-GATOR2 INTERACTION AND USES THEREOF” (Navitor Pharmaceuticals, Inc., priority 2017, published 2021).
# How the values were obtained:
# [1] = tested on: marmosets (Callithrix jacchus); test: Marmoset Human Threat Test (HTT); format: in vivo; details: Example J, ketamine 0.3 mg/kg i.m.
# Text: Marmoset Human Threat Test (HTT): Marmosets were challenged by the presence of a human observer over a long period of time on a regular basis. Such chronic stimulation is known to increase plasma cortisol and the subsequent increase in hypothalamic-pituitary-adrenal function contributed to the pathophysiology of depressive illness.
# Study Design: Thirty-six (36) marmosets (Callithrix jacchus) were paired and divided randomly divided into treatment groups. Twenty-four hours before the Human Threat Test (HTT) animals were treated with vehicle, ketamine (0.3 mg/kg; i.m.) or NV-5138 (160 mg/kg; p.o.). The following day, the same animals were treated with either vehicle (s.c.) or chloriazepoxide (1 mg/kg; s.c.). The animals were then monitored for the number of threat postures over a two (2) minutes period with the presence of a human observer. Locomotor activity was monitored over the same period, as measured by the number of jumps observed.
# Male Sprague Dawley rats = test: Novelty Suppressed Feeding Test (NSFT) with home cage feeding control; format: in vivo, rat; details: Example I; Ket 10 mg/kg i.p. on alternate days (day 0, 2, 4, 6); day 9
# Method: Behavioral Analysis Using the Novelty Suppressed Feeding Test (NSFT): The NSFT was conducted as previously described (Warner-Schmidt, J. L. & Duman, R. S. PNAS 104(11): 4647-52 (2007)). Rats were fasted in their home cages for 20 hr and then placed in a Plexiglas open field (76.5 cm×76.5 cm×40 cm) with a small amount of food in the center. Animals were allowed to explore the open field for 8 min and the latency to feed (s) was recorded.
# Chronic Unpredictable Stress (CUS) Conditions: Rats were exposed to a variable sequence of 12 unpredictable stressors, preventing habituation as described (Li, N. et al., Biol Psychiatry 69(8): 754-61 (2011)). The following twelve stressors were applied (2 per day, for 25 days): cage rotation, light on, light off, cold stress, isolation, swim stress, food and water deprivation, wet bedding, stroboscope, cage tilt, odor exposure and group housing. The animals in non-stressed (NS) groups were housed normally without the application of external stressors. Both NS and CUS rats were handled and weighed weekly.
# Study Design. Thirty-two (32) male Sprague Dawley Male rats weighing between 175 and 200 g were randomized into 4 study groups (n=8/treatment group), following a 5-day acclimation period. On study day 0, rats received a single dose of either saline (Sal) or ketamine (Ket) in Groups 1 and 2, respectively, by intraperitoneal injection (i.p.). The rats in Group 3 and 4 received a single dose of the NV-5138 vehicle (Veh, 0.5% Methylcellulose/0.1% Tween-80) or NV-5138 (160 mg/kg), respectively, by oral gavage. All rats were subjected to the FUST on day 1, 24 hrs after dosing. On day 2, 48 hrs after dosing, the LMA of all rats was measured in an open field. Rats were then fasted for 20 hrs and subjected to the NSFT, 72 hrs post-dose.
# Study Design: Fifty-six (56) male rats weighing between 175 and 200 g were randomized into 4 study groups (n=14/group), following a 5-day acclimation period. On study day minus 20, two groups of rats were subjected to CUS for 25 days and two groups of rats were housed normally serving as the NS group. On the day 21 of the CUS protocol, rats received a single dose of either Veh or NV-5138 (160 mg/kg) by oral gavage (day 0). The SPT and NSFT were performed 24 and 48 hrs post-administration (days 1 and 2), respectively. Upon completion of the behavioral tests, after 25 days of the CUS protocol a second dose of NV-5138 or Veh was administered on day 5 and rats were sacrificed 24 hrs later by conscious decapitation. Crude synaptosomes were prepared from the PFC and the synaptic proteins, GluR1 and PSD95 were quantitated by WB.
# Study Design. Twenty (20) male rats weighing between 175 and 200 g were randomized into 3 study groups (n=6-7/group), following a 5-day acclimation period. All rats were surgically implanted with bilateral IT cannulas in the PFC 2 weeks prior to dosing. […] Thirty minutes following the intrathecal infusions, either NV-5138 vehicle (Veh-NV, 0.5% methylcellulose/0.1% Tween-80) or NV-5138 (160 mg/kg) was administered by oral gavage. Each treatment group was assessed at the designated time following oral dosing in FST 24 hrs (day 1) LMA 48 hrs (day 2) and the NSFT 72 hrs (day 3 following a 20 hr period of fasting). LMA was measured to rule out overall changes in generally locomotor activity. The study design is presented in Table 11 with timeline of surgical procedures, test article administration and behavioral tests is provided in FIG. 20
# Study Design. Forty-eight (48) male rats weighing between 175 and 200 g were randomized into 6 study groups (n=8/group), following a 5-day acclimation period. A single dose of all test articles was administered on day 0 and the behavioral tests were performed 3, 7 and 10 days later. Groups 1 and 2 were dosed on day 0 with NV-5138 (160 mg/kg by oral gavage) and Ket (10 mg/kg by i.p. injection), respectively and subjected to a FST on day 3. […]
# Sestrin2 = biological target: T1, Sestrin2 (Homo sapiens, UniProt P58004); test: Indirect ligand binding assay (ILBA, Method 7), immunoprecipitation with CST anti-Sestrin2 antibody; parameters: endogenous in cells; host or cells: unnamed human cell line (crude lysate after 1 h amino acid starvation); details: crude lysate of amino acid-starved human cell line; 1 hour incubation
# T1 sequence (P58004 1-480): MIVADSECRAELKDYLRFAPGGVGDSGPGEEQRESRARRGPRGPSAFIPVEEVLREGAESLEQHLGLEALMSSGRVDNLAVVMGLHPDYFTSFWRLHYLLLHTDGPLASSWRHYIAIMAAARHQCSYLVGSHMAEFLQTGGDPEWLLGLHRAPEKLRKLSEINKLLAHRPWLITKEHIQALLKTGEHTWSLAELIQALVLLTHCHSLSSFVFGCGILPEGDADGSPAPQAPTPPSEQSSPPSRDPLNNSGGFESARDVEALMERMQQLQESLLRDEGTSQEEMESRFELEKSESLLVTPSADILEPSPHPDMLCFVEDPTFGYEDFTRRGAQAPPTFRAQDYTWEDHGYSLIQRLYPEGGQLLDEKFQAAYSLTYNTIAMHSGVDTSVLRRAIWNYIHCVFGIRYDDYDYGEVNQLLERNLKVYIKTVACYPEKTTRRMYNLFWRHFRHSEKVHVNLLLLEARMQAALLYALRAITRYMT
# Method: Conversely, compounds that destabilized Sestrin2 as measured by thermal shift assay increased the affinity of the CST antibody for non-denatured Sestrin2. […] In one version, the assay was performed with crude lysate generated from a human cell line after a 1-hour period of amino acid starvation (cells are lysed in 1% Triton, 10 mM beta-glycerol phosphate, 10 mM sodium pyrophosphate, 40 mM HEPES [pH 7.4], 150 mM NaCl and 2.5 mM MgCl2). […] After compound incubation, samples were subjected to immunoprecipitation with the CST anti-Sestrin2 antibody for 1.5 hours followed by a 30-minute incubation with protein-A sepharose as described in L. Chantranupong, et al., Cell Reports 9:1-8 (2014). The sepharose conjugated antibody-protein complex was precipitated via centrifugation and the flow-through was subjected to a second round of immunoprecipitation with a rabbit polyclonal anti-Sestrin2 antibody (Protein Tech, #10795-1-AP) to determine that total Sestrin2 protein levels between samples were equal. SDS-PAGE was performed with the immunoprecipitation samples followed by western-blot with the mouse monoclonal anti-Sestrin2 antibody from SIGMA (cat #WH0083667M3). […] This version of the assay also measured increased instability of Sestrin2 induced by incubation with compounds.
# [2] = tested on: point mutant form of Sestrin2 unable to bind leucine; test: ILBA with Flag-tagged point mutant Sestrin2; format: binding, human
# Method: This assay was also performed in cultured human cells over-expressing Sestrin2 N-terminally fused to a Flag tag. In this version of the assay, the procedure remained the same, but immunoblotting was performed with a mouse anti-Flag antibody (#F3165, SIGMA).
SMILES,animals that developed mild emesis ([1]; half of the animals (6 out of the 12 dosed)) [animals],"HTT, number of threat postures ([1]; twenty-four hours after acute administration)",NSFT (Male Sprague Dawley rats),decrease in intensity of the Sestrin2 band (immunoprecipitated with CST anti-Sestrin2 antibody) (Sestrin2) [%],decrease in affinity of the CST antibody upon ligand binding [2]
"CNC1(c2ccccc2Cl)CCCCC1=O (centres unmarked) [Ketamine, reference compound]",6,induces an anxiolytic/antidepressant-like profile,significant effects,–,–
CC(C)C[C@H](N)C(=O)O [leucine],–,–,–,≥ 50,not observed
